According to ChEMBL document CHEMBL5724696, “Autophagy assay results for EUbOPEN Chemogenomics Library” (2024):

How the values were obtained:
Format in all cases: functional, Homo sapiens
[1] = test system: U2OS; test: (§1) Here: values are normalized to the negative (DMSO; defined as 0% autophagy induction) and positive (250nM Torin1; mTOR inhibitor; defined as maximal inducer of autophagy = 100%) control compounds and represented as % of autophagy induction. […] The impact of autophagy induction on cells is complex and depends on the affected target. As such, the magnitude of a phenotype may not be equally mirrored in the %-value of autophagy induction and vice versa. The dynamics of the induction may indicate the mode of activation: e.g. activation via phosphorylation or a signaling cascade may occur fast, while activation via transcription factors may take considerably longer. […] Of note, treatment concentrations may be sub-optimal for specific compounds, leading to false negative annotations.; conditions: Culturing Media DMEM, 1 % Penicillin/Streptomycin, 10% Fetal bovin serum Add-On: No, Screening Media Control DMEM, Screening Media Samples DMEM
[2] = test system: TERT-RPE1; test: as §1; conditions: Culturing Media DMEM/F12 (1:1), 1 % Penicillin/Streptomycin, 10% Fetal bovin serum Add-On: No, Screening Media Control DMEM/F12 (1:1), Screening Media Samples DMEM/F12 (1:1)
[3] = test system: U2OS; test: as §1; conditions: Culturing Media DMEM, 1 % Penicillin/Streptomycin, 10% Fetal bovin serum Add-On: No, Screening Media Control DMEM, Screening Media Samples DMEM; remark: listed apart in the source
[4] = Compound Concentration 0.5 uM, Timepoint 12 hours
[5] = Compound Concentration 0.5 uM, Timepoint 24 hours
[6] = Compound Concentration 0.5 uM, Timepoint 36 hours
[7] = Compound Concentration 0.5 uM, Timepoint 60 hours
[8] = Compound Concentration 2 uM, Timepoint 12 hours
[9] = Compound Concentration 2 uM, Timepoint 24 hours
[10] = Compound Concentration 2 uM, Timepoint 36 hours
[11] = Compound Concentration 2 uM, Timepoint 60 hours
[12] = Compound Concentration 10 uM, Timepoint 12 hours
[13] = Compound Concentration 10 uM, Timepoint 24 hours
[14] = Compound Concentration 10 uM, Timepoint 36 hours
[15] = Compound Concentration 10 uM, Timepoint 60 hours

Work on `Cc1nnn(-c2ccc(-c3ccc(C4(C(=O)O)CC4)cc3)cc2)c1NC(=O)O[C@H](C)c1ccccc1` yielded an autophagy induction [1, 4] of -1.478%, an autophagy induction [1, 5] of 0.2424% and an autophagy induction [1, 6] of -2.356%. For the same molecule, the autophagy induction [1, 7] was -5.696%, the autophagy induction [1, 8] was 5.693% and the autophagy induction [1, 9] was 3.627%. It also gave an autophagy induction [1, 10] of 6.347%, an autophagy induction [1, 11] of 1.322% and an autophagy induction [1, 12] of 9.873%. The autophagy induction [1, 13] was 11.541%, the autophagy induction [1, 14] was 8.0313% and the autophagy induction [1, 15] was 1.41%. For the same molecule, the autophagy induction [2, 4] was -8.995%, the autophagy induction [2, 5] was -11.6561% and the autophagy induction [2, 6] was -16.9316%. It also gave an autophagy induction [2, 7] of -15.4997%, an autophagy induction [2, 8] of -6.061% and an autophagy induction [2, 9] of -9.8231%. It also gave an autophagy induction [2, 10] of -13.2189%, an autophagy induction [2, 11] of 6.862% and an autophagy induction [2, 12] of 6.725%. It also gave an autophagy induction [2, 13] of 7.557%, an autophagy induction [2, 14] of 8.9017% and an autophagy induction [2, 15] of 33.5372%. It also gave an autophagy induction [3, 4] of 2.665%, an autophagy induction [3, 5] of 0.2559% and an autophagy induction [3, 6] of -0.1373%. It also gave an autophagy induction [3, 7] of 0.1457%, an autophagy induction [3, 8] of 3.283% and an autophagy induction [3, 9] of 0.4892%. It also gave an autophagy induction [3, 10] of -0.1911%, an autophagy induction [3, 11] of -0.4752% and an autophagy induction [3, 12] of 8.52%. For the same molecule, the autophagy induction [3, 13] was 5.722%, the autophagy induction [3, 14] was 2.388% and the autophagy induction [3, 15] was 0.4676%.

In the case of `COc1ccnc(N2CCC3(CCCN(Cc4c[nH]c5ccccc45)C3=O)CC2)n1`, the autophagy induction [1, 4] was -0.8639%, the autophagy induction [1, 5] was 3.062% and the autophagy induction [1, 6] was -2.159%. It also gave an autophagy induction [1, 7] of 0.6428%, an autophagy induction [1, 8] of 14.1219% and an autophagy induction [1, 9] of 7.888%. It also gave an autophagy induction [1, 10] of 7.881%, an autophagy induction [1, 11] of 5.533% and an autophagy induction [1, 12] of -0.07351%. For the same molecule, the autophagy induction [1, 13] was -0.8676%, the autophagy induction [1, 14] was 0.7982% and the autophagy induction [1, 15] was -3.188%. For the same molecule, the autophagy induction [2, 4] was -7.48%, the autophagy induction [2, 5] was -12.7476% and the autophagy induction [2, 6] was -12.8002%. It also gave an autophagy induction [2, 7] of -18.0789%, an autophagy induction [2, 8] of -3.2646% and an autophagy induction [2, 9] of -8.655%. The autophagy induction [2, 10] was -9.0208%, the autophagy induction [2, 11] was -13.8382% and the autophagy induction [2, 12] was -6.8833%. For the same molecule, the autophagy induction [2, 13] was -7.1204%, the autophagy induction [2, 14] was -8.728% and the autophagy induction [2, 15] was -9.531%. For the same molecule, the autophagy induction [3, 4] was 6.725%, the autophagy induction [3, 5] was 2.47% and the autophagy induction [3, 6] was 0.2405%. For the same molecule, the autophagy induction [3, 7] was -0.1995%, the autophagy induction [3, 8] was -9.208% and the autophagy induction [3, 9] was -5.729%. For the same molecule, the autophagy induction [3, 10] was -5.289%, the autophagy induction [3, 11] was -3.421% and the autophagy induction [3, 12] was 2.478%. For the same molecule, the autophagy induction [3, 13] was -1.409%, the autophagy induction [3, 14] was -1.806% and the autophagy induction [3, 15] was -1.259%.
